Results taken from patent US20160025704A1, “METHODS FOR IDENTIFYING NEUROPROTECTIVE PKC ACTIVATORS” (priority 2013, published 2016).

How the values were obtained:
TA 1535 Cells = test: AMES test, TA1535 cells; type: cell-based; settings: TA1535 Cells, plate count
From the text: The AMES test is a rapid screening of the mutagenic potential of chemical compounds. […] Between 50% and 70% of all known carcinogens test positive in the AMES test.

cerebral ischemia rats = test: Pyramidal cells, BDNF and synapses in dorsal hippocampal CA1 area after cerebral ischemia; type: in vivo; settings: 15 μg/m^2 tail vein for 5 weeks beginning 24 hours after ischemic/hypoxic event
Description: Protocol: Rats were administered bryostatin-1 (15 μg/m^2, tail vein injection) for 5 weeks beginning 24 hours after the end of the ischemic/hypoxic event. […] Non-treated groups received the same vehicle volumes, mechanism of delivery, and frequency of administration as the treated groups.

Human primary neurons = test: ASPD-induced apoptosis in human primary neurons (Annexin-V Fluorescein); type: cell-based; settings: 0.27 nM with 100 nM ASPD, 24 hours
Description: Protocol: Human primary neurons were grown on chambered slides and treated with vehicle (Control), 100 nM ASPD, ASPD+DCPLA-ME (100 nM), ASPD+bryostatin 1 (0.27 nM) and ASPD+DCPLA-ME (100 nM) or ASPD+bryostatin 1 (0.27 nM) in presence of PKC-ε inhibitor. Following 24 hours of incubation, cells were stained using Annexin-V Fluorescein to detect apoptotic cells and results are shown in FIG. 10 below. […] Data are mean±SEM of three independent experiments. (*p<0.05;** p<0.005 and *** p<0.0005).

[1] = tested on: healthy brown Norway rats; test: Mushroom spine formation in healthy rats after water maze training; type: in vivo; settings: given during water maze training
From the text: Protocol: Non-diseased, healthy brown Norway rats (at 4-5 months old) were used in this study. Bryostatin enhanced the formation of mushroom spines in healthy rats after water maze training as shown in a-e. Memory retention after water maze training (4 swims per days for 5 days) increased the number of mushroom dendritic spine and synapses with (e) perforated postsynaptic densities (PSDs), but not with macular PSDs (d). […] Nv=naîve controls; Sw=swim controls; Mz=water maze treatment; and Mz/Br=water maze treatment plus bryostatin treatment.

PKC-ε = target: T1, PKC-ε (Mus musculus, UniProt P16054); test: PKC-ε activation and translocation by bryostatin in mouse brain (Western blot); type: in vivo
T1 construct: from tissue; host or cells: brain of C57BL/6 mice
T1 sequence (P16054 1-737): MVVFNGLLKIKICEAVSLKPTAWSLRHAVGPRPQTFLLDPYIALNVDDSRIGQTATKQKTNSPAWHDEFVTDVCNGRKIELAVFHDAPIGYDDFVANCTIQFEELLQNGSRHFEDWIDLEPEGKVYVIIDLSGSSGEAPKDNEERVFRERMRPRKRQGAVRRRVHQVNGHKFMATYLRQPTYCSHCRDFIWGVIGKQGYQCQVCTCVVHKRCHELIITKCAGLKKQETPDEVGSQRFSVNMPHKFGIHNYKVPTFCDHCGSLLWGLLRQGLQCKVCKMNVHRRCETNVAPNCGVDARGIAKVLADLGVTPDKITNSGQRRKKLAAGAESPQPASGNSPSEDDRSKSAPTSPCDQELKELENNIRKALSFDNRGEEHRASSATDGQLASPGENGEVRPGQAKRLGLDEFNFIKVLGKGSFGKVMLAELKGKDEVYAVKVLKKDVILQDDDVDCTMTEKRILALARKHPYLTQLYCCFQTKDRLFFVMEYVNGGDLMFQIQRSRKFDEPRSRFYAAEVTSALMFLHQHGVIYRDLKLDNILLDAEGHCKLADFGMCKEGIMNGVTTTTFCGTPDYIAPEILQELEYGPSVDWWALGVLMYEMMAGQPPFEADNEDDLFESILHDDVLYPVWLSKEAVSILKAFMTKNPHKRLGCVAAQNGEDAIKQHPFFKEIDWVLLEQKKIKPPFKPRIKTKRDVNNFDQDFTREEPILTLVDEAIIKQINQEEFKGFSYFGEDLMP
Description: Protocol: Male C57BL/6M mice (15-20 g, Charles River) were acclimatized for 7-8 days in a non-enriched environment, three mice per cage. Bryostatin (Tocris) was dissolved in DMSO, diluted into 0.9% saline, and injected into the tail vein at doses of 10 and 15 μg/m2. After a fixed period, the mice were anesthetized with CO2 and the brain was frozen on dry ice. Blood was mixed with 0.2 ml 1 mM EDTA in PBS, centrifuged at 100 g for 30 min, and plasma was frozen on dry ice. In some experiments, blood lymphocyte fractions were collected using Ficoll-Paque Plus reagent using the procedure recommended by the manufacturer. All animal procedures were approved by the institutional IACUC.
Activation and translocation of PKC-ε were measured by Western blotting after subcellular fractionation into cytosol and particulate fractions. Homogenates were centrifuged at 100,000×g for 20 min and cytosolic and particulate fractions were separated on 4-20% Tris-glycine SDS polyacrylamide gels, blotted onto nitrocellulose, and probed with isozyme specific antibodies. The blots were photographed in a GE ImageQuant at 16 bits/pixel and analyzed by vertical strip densitometry using Imal Unix software.
Bryostatin was injected into the tail vein of C57BL/6N mice at 10 and 15 μg/m2 (equivalent to 3.50 and 5.25 μg/kg), and brain PKC-ε concentration was measured using Western blots. Brain PKC-ε activation was biphasic, peaking at 0.5 h and slowly declined toward resting levels, even though bryostatin levels continued to increase. This is consistent with the short-lived activation of PKC established previously. […] The bryostatin concentration at 0.5 h was 0.029 nM.
The results of a dose dependence study of activation of PKCα and PKCε translocation by bryostatin, are shown below in FIG. 4 (measured 30 minutes after administration), and FIG. 5 (measured 120 minutes after administration). The effect of bryostatin on brain PKC translocation (an indicator of enzymatic activation) was also biphasic, with maximal effects observed at doses between 5 and 10 μg/m2.

| SMILES | Negative (TA 1535 Cells; 0.125 mM) | Positive (TA 1535 Cells; 0.125 mM) | Negative (TA 1535 Cells; 0.25 mM) | Positive (TA 1535 Cells; 0.25 mM) | Negative (TA 1535 Cells; 0.5 mM) | Positive (TA 1535 Cells; 0.5 mM) | Negative (TA 1535 Cells; 1 mM) | Positive (TA 1535 Cells; 1 mM) | immunofluorescence intensity of BDNF (cerebral ischemia rats) | loss of dendritic spines and synapses (cerebral ischemia rats) | neuronal loss (cerebral ischemia rats; 9 days after last dose) | protection against ASPD-induced apoptosis (Human primary neurons) | mushroom spines with macular PSDs [1] | mushroom spines with perforated PSDs [1] | PKC-ε translocation in mouse brain (PKC-ε; 30 and 120 minutes after administration) | downregulation of brain PKC-ε (PKC-ε; tail vein 10 and 15 μg/m2, C57BL/6N mice) | time of peak brain PKC-ε activation (PKC-ε; tail vein 10 and 15 μg/m2, C57BL/6N mice, biphasic) [h] |
| --- | --- | --- | --- | --- | --- | --- | --- | --- | --- | --- | --- | --- | --- | --- | --- | --- | --- |
| CCCCCC1CC1CC1CC1CCCCCCCC(=O)O (centres unmarked) [DCPLA, 8-[2-(2-pentylcyclopropyl)methyl]-cyclopropaneoctanoic acid] | 95 | 1 | 93 | 3 | 94 | 2 | 93 | 3 |  |  |  |  |  |  |  |  |  |
| CCC/C=C/C=C/C(=O)O[C@H]1/C(=C/C(=O)OC)C[C@H]2C[C@H]([C@@H](C)O)OC(=O)C[C@H](O)C[C@@H]3C[C@H](OC(C)=O)C(C)(C)[C@](O)(C[C@@H]4C/C(=C/C(=O)OC)C[C@H](/C=C/C(C)(C)[C@]1(O)O2)O4)O3 [Bryostatin, bryostatin-1] |  |  |  |  |  |  |  |  | induced an increase in the immunofluorescence intensity of brain-derived neurotrophic factor (BDNF) | protected the loss of dendritic spines and synapses | prevented neuronal loss | protected against ASPD-induced apoptosis | significantly increased | enhanced | translocation was only observed by PKC-ε | No downregulation below starting values was observed | 0.5 |
